Reference: ChEMBL document CHEMBL4270647, “Recent advances of RAF (rapidly accelerated fibrosarcoma) inhibitors as anti-cancer agents” (Eur J Med Chem, 2018)
Blank lines part the entries; values can stand above or below the compound they belong to.

Experiments:
MKN-45 = experiment: Antiproliferative activity against human MKN45 cells; assay type: functional, cell-based
NCI-H460 = experiment: Antiproliferative activity against human NCI-H460 cells; assay type: functional, cell-based
UO-31 = experiment: Antiproliferative activity against human UO31 cells; assay type: functional, cell-based
MCF7 = experiment: Antiproliferative activity against human MCF7 cells; assay type: functional, cell-based
MX1 = experiment: Antiproliferative activity against human MX1 cells; assay type: functional, cell-based
[1] = target: T1, Serine/threonine-protein kinase B-raf (Homo sapiens, UniProt P15056); experiment: Inhibition of BRAF (unknown origin)
T1 sequence (P15056 whole entry): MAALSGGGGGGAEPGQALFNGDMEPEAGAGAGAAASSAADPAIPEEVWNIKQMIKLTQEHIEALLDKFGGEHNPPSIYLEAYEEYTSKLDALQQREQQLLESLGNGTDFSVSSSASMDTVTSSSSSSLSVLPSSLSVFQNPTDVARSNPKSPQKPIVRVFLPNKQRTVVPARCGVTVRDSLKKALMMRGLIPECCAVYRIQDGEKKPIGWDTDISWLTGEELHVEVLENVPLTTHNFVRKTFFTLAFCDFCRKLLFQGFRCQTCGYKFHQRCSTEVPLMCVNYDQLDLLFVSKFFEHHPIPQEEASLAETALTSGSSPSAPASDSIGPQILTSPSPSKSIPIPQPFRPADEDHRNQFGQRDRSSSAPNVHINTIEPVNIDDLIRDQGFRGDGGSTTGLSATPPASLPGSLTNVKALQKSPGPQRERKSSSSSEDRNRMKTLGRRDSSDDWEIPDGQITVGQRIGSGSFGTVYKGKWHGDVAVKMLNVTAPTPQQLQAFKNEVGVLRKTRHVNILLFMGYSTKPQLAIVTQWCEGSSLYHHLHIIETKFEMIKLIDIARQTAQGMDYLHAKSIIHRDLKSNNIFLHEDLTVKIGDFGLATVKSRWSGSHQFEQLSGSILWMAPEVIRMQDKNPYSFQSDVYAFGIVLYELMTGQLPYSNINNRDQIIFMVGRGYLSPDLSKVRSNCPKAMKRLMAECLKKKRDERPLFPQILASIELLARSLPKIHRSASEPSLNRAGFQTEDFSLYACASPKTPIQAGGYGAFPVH

HCT-116 = experiment: Antiproliferative activity against human HCT116 cells; assay type: functional, cell-based
A-375 [2] = experiment: Antiproliferative activity against human A375 cells; assay type: functional, cell-based
[3] = target: T2, Serine/threonine-protein kinase B-raf (Homo sapiens, UniProt P15056, V600E); experiment: Inhibition of BRAF V600E mutant (unknown origin)
T2 sequence (P15056 2-766 V600E limits assumed): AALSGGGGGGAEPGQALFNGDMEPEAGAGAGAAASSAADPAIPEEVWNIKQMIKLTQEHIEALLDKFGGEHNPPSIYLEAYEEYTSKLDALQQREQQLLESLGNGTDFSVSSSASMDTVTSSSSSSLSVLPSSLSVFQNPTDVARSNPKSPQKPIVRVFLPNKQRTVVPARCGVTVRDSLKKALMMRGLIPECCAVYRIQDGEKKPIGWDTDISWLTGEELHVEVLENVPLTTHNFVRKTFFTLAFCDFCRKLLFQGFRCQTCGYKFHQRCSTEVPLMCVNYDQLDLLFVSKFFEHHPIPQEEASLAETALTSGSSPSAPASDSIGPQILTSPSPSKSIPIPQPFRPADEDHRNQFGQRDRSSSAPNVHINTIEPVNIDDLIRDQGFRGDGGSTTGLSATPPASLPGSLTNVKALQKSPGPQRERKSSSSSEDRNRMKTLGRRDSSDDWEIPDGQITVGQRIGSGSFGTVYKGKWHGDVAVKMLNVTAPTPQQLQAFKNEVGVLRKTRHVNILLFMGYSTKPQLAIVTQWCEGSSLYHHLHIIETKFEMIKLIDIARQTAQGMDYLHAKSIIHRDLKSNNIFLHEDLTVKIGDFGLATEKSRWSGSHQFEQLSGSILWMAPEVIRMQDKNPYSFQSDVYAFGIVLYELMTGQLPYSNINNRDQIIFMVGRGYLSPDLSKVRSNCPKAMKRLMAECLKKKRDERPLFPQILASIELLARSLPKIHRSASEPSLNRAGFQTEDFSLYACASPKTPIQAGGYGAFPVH

[4] = target: T3, RAF proto-oncogene serine/threonine-protein kinase (Homo sapiens, UniProt P04049); experiment: Inhibition of CRAF (unknown origin)
T3 sequence (P04049 whole entry): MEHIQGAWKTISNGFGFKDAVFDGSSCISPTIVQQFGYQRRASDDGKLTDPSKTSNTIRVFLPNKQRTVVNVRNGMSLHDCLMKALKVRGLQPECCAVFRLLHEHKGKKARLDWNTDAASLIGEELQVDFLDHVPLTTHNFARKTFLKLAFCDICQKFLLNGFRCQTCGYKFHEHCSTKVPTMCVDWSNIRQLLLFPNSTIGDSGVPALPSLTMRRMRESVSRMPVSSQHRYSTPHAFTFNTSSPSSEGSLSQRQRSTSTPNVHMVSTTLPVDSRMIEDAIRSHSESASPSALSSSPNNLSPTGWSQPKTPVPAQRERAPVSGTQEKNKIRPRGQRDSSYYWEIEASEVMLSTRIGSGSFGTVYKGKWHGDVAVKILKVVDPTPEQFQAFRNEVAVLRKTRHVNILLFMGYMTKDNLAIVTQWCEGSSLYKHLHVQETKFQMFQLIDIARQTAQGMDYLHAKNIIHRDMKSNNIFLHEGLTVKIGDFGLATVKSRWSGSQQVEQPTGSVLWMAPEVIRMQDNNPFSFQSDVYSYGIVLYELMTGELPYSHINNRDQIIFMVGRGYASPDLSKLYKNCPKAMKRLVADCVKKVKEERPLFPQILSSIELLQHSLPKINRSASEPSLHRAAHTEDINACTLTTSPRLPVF

[5] = target: T4, Serine/threonine-protein kinase A-Raf (Homo sapiens, UniProt P10398); experiment: Inhibition of ARAF (unknown origin)
T4 sequence (P10398 whole entry): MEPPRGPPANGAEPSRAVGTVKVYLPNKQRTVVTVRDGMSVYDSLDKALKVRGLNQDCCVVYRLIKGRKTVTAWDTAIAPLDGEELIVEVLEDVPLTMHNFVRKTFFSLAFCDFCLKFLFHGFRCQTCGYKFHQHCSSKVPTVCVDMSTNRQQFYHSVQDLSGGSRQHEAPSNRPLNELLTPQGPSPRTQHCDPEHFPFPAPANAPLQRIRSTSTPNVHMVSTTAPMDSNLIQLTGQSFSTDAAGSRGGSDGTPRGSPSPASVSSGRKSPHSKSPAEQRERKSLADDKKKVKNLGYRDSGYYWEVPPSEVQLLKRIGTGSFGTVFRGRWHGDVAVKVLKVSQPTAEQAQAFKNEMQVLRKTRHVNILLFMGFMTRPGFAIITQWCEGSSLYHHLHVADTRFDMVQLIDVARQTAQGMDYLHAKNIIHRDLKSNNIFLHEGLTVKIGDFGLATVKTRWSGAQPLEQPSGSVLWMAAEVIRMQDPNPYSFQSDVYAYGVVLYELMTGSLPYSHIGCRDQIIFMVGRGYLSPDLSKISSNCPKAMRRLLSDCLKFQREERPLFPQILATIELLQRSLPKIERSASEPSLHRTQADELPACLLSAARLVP

SK-MEL-2 = experiment: Antiproliferative activity against human SK-MEL-2 cells after 72 hrs by CTG solution based luminescence assay; assay type: functional, cell-based; settings: SK-MEL-2, 72 h
[6] = target: T2, Serine/threonine-protein kinase B-raf; experiment: Inhibition of […] BRAF V600E mutant (AA416 to 766 residues (unknown origin) using full length His6-tagged MEK1 as substrate after 20 mins in presence of 33P-gamma-ATP by hotspot kinase assay
[7] = target: T3, RAF proto-oncogene serine/threonine-protein kinase; experiment: Inhibition of CRAF (unknown origin) after 20 mins in presence of 33P-gamma-ATP by hotspot kinase assay
[8] = target: T4, Serine/threonine-protein kinase A-Raf; experiment: Inhibition of ARAF (unknown origin) after 20 mins in presence of 33P-gamma-ATP by hotspot kinase
[9] = target: T1, Serine/threonine-protein kinase B-raf; experiment: Inhibition of BRAF (unknown origin) using full length His6-tagged MEK1 as substrate after 20 mins in presence of 33P-gamma-ATP by hotspot kinase assay
COLO 205 = experiment: Antiproliferative activity against human COLO205 cells after 72 hrs by CTG solution based luminescence assay; assay type: functional, cell-based; settings: COLO 205, 72 h
A-375 [10] = experiment: Antiproliferative activity against human A375 cells after 72 hrs by CTG solution based luminescence assay; assay type: functional, cell-based; settings: A-375, 72 h
HT-29 = experiment: Antiproliferative activity against human HT-29 cells; assay type: functional, cell-based
HepG2 = experiment: Antiproliferative activity against human HepG2 cells; assay type: functional, cell-based
KETR3 = experiment: Antiproliferative activity against human Ketr3 cells; assay type: functional, cell-based

- IC50 (MKN-45): 50 nM
- IC50 (NCI-H460): 70 nM
SMILES: CN(C)CCn1cnnc1-c1cc(Oc2ccc(NC(=O)N/N=C/c3cccc(Cl)c3Cl)cc2F)ccn1

- IC50 (MCF7): 2000 nM
SMILES: COc1ccc(C(=O)NCCNc2nccc(-c3c(-c4ccc(F)cc4)nc4sccn34)n2)cc1
- IC50 (UO-31): 1420 nM

SMILES: CC(NC(=O)c1ccc(-c2ccc(NC(=O)Nc3ccc(C(F)(F)F)c(Cl)c3)cc2)cc1)c1ccccc1 (stereo unspecified)
- IC50 (MX1): 4630 nM

SMILES: CNC(=O)c1cc(Cn2ccc3cc(NC(=O)Nc4ccc(Cl)c(C(F)(F)F)c4)ccc32)ccn1
- IC50 [1]: 510 nM

- IC50 (HCT-116): 32 nM
- IC50 (A-375 [2]): 6 nM
- IC50 [3]: 1000 nM
SMILES: CNc1cc2c(cn1)cc(-c1ccc(F)c(NC(=O)Nc3cc(C(C)(C)C)no3)c1)c(=O)n2C1CCOC1 (stereo unspecified)

- IC50 [4]: 40 nM
- IC50 [3]: 19 nM
SMILES: O=S(=O)(NCCNc1nccc(-c2c(-c3ccc(F)cc3)nc3sccn23)n1)c1ccc(O)cc1

- IC50 [1]: 29.7 nM
- IC50 [5]: 25.3 nM
- IC50 [4]: 13.3 nM
- IC50 [3]: 1.4 to 12.2 nM
SMILES: Cc1ccc(C(=O)Nc2ccc(C(F)(F)F)c(Cl)c2)cc1NC(=O)C1(c2cc(NCCCN3CCN(C)CC3)ncn2)CC1

- IC50 (MCF7): 1430 nM
SMILES: O=C(NCCNc1nccc(-c2c(-c3ccc(F)cc3)nc3sccn23)n1)c1ccccc1
- IC50 (UO-31): 1750 nM

- IC50 [1]: 1360 nM
SMILES: CNC(=O)c1cc(Cn2cc(F)c3cc(NC(=O)Nc4ccc(Cl)c(C(F)(F)F)c4)ccc32)ccn1

- IC50 (MCF7): 3730 nM
SMILES: O=C(NCCNc1nccc(-c2c(-c3ccc(F)cc3)nc3sccn23)n1)Nc1ccccc1
- IC50 (UO-31): 2940 nM

- IC50 (SK-MEL-2): < 400 nM
- IC50 [6]: 12.6 nM
- IC50 [7]: 17.5 nM
- IC50 [8]: 30.1 nM
- IC50 [3]: 12.6 nM
- IC50 [9]: 19.7 nM
- IC50 (COLO 205): 1920 nM
- IC50 (A-375 [10]): 1070 nM
SMILES: Cc1ccc(C(=O)Nc2ccc(C(F)(F)F)c(Cl)c2)cc1NC(=O)C1(c2ccnc(NCCN3CCN(C)CC3)n2)CC1

- IC50 [3]: 23 nM
SMILES: O=S(=O)(c1ccc(F)cc1)N1CCCC(Nc2nccc(-c3c(-c4ccc(F)cc4)nc4sccn34)n2)C1 (stereo unspecified)

- IC50 (A-375 [2]): 13 nM
- IC50 [3]: 7 nM
SMILES: COc1cc2c(cnc3[nH]nc(C4CC4)c32)cc1-c1c(F)ccc(NS(=O)(=O)CCCF)c1F

- IC50 (HT-29): 5170 to 6460 nM
- IC50 (HepG2): 5170 to 6460 nM
- IC50 (A-375 [2]): 5170 nM
SMILES: CC(NC(=O)c1cccc(-c2ccc(NC(=O)Nc3ccc(C(F)(F)F)c(Cl)c3)cc2)c1)c1ccccc1 (stereo unspecified)
- IC50 (MX1): 5170 to 6460 nM
- IC50 (KETR3): 5170 to 6460 nM

- IC50 (HT-29): 3610 to 18800 nM
- IC50 (HepG2): 8270 to 18800 nM
- IC50 (A-375 [2]): 8270 to 18800 nM
SMILES: CNC(=O)c1cc(Oc2ccc(NC(=O)Nc3ccc(Cl)c(C(F)(F)F)c3)cc2)ccn1 [SORAFENIB]
- IC50 (MX1): 8270 to 18800 nM
- IC50 (KETR3): 8270 to 18800 nM
